This is an account of results in BindingDB's records for PubMed 8930187 (Leiden University, 1996).

The structures appear in SMILES notation.

In this experiment the target is Gamma-aminobutyric acid receptor subunit alpha-1 (Rattus norvegicus, UniProt P62813).
Chain of Gamma-aminobutyric acid receptor subunit alpha-1 (P62813 whole entry): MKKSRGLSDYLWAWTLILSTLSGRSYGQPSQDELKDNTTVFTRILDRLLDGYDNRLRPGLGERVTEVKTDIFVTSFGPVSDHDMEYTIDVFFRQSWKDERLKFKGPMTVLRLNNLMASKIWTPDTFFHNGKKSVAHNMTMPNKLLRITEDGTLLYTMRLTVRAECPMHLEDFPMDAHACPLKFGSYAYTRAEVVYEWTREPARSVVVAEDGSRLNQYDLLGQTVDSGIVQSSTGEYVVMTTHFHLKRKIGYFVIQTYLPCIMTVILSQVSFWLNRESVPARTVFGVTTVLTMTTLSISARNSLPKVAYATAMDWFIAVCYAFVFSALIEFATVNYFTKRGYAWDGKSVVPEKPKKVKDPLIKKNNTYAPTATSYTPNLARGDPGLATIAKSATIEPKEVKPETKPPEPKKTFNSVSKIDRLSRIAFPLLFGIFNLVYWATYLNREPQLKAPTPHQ

Regarding `Cc1ncc2n1-c1ccc(Cl)cc1C(c1ccccc1F)=NC2` [12-chloro-9-(2-fluorophenyl)-3-methyl-2,4,8-triazatricyclo[8.4.0.0^{2,6}]tetradeca-1(10),3,5,8,11,13-hexaene], affinity was put at a Ki of 0.026 µM. The same measure for `O=C1CN=C(c2ccccc2Cl)c2cc([N+](=O)[O-])ccc2N1` [5-(2-chlorophenyl)-7-nitro-1,3-dihydro-2H-1,4-benzodiazepin-2-one]: 0.027 µM; for `O=C1Nc2ccc(Cl)cc2C(c2ccccc2)=NC1O` (centres undefined) [CAS_604-75-1]: 0.35 µM. The same measure for `CN1C(=O)CN=C(c2ccccc2F)c2cc([N+](=O)[O-])ccc21` [Flunitrazepam]: 0.029 µM.

In general, Ki refers to the equilibrium dissociation constant of an inhibitor or competing ligand from its target. Higher therefore signals weaker binding.
